Experiments:
[1] = system: hyaluronidase; test: VEGF-induced hyaluronidase expression (immunoblot); format: cell-based, human; conditions: 100 nM HMW-HA, 100 nM VEGF
Description: Determination of the role of HMW-HA/CD44 interactions in regulating hyaluronidase activity and angiogenesis in vitro. Human pulmonary microvascular EC (HPMVEC) (Cambrex), grown in EBM-2 complete medium (Cambrex) at 37° C. in a humidified atmosphere of 5% CO2, 95% air, with passages 6-10 used for experimentation was treated with or without 100 nM HMW-HA and/or 100 nM VEGF in the presence or absence of CD44 isoform-specific blocking antibodies (EMD Biosciences), siRNA (scramble, CD44, Hyal-1, Hyal-2, Hyal-3 or Hyal-4) and the potent hyaluronidase inhibitor, L-ascorbic acid 6-hexadecanoate (Botzki et al., 2004) (Sigma). […] Treated EC will either be analyzed for protein expression, hyaluronidase activity or VEGF-induced proliferation, migration or tube formation. […] Cells from the upper and lower chamber were quantitated using the CellTiter96™ MTS assay (Promega, San Luis Obispo, Calif.) and read at 492 nm. % migration was defined as the # of cells in the lower chamber […] the number of cells in both the upper and lower chamber. Each assay was set up in triplicate, repeated at least five times and analyzed statistically by Student's t test (with statistical significance set at P<0.05). […] The in vitro cell proliferation assay was analyzed by measuring increases in cell number using the CellTiter96™ MTS assay (Promega, San Luis Obispo, Calif.) and read at 492 nm. […]

[2] = system: CD44; test: CD44 expression in mouse lung homogenates (immunoblot); format: in vivo
Description: Animal Preparation and Treatment. Male C57BL/6J, B6129N2, CD44^−/− or caveolin-1^−/− mice (8-10 weeks, Jackson Laboratories, Bar Harbor, Me.) were anesthetized with intraperitoneal ketamine (150 mg/kg) and acetylpromazine (15 mg/kg) before exposure of the right internal jugular vein via neck incision. LPS (2.5 mg/kg) or water (control) were instilled intratracheally. Four hours later, mice receive high MW HA (1.5 mg/kg) or water control through the internal jugular vein. The animals were allowed to recover for 24 hours after LPS before bronchioalveolar lavage protein and cytokine concentration and/or lung immunohistochemistry/immunoblot analysis (Peng et al., 2004).
Immunoblot analysis of CD44 and Caveolin-1 expression in control, LPS- and HA-treated mouse lung homogenates. CD44 is highly likely to be important in lung disease as CD44−/− mice develop lung fibrosis, inflammatory cell recruitment and accumulation of hyaluronan fragments at sites of lung injury (Teder et al., 2002). […] Caveolin-1 can be differentially regulated in various models of acute lung injury (ALI). Monocrotaline-induced rodent pulmonary hypertension results in a loss of lung EC caveolin-1 expression (Mathew et al., 2004). In contrast, there is no change in pulmonary caveolin-1 expression in lipopolyscaaharide (LPS)-induced sepsis with lung injury (Garrean et al., 2006). […]

[3] = system: C1INH; test: C1INH expression in EC (immunoblot); format: cell-based, human; conditions: 100 nM HMW-HA
Description: Determination of the role of HMW-HA/HABP2/C1INH interactions in regulating angiogenesis in vitro. Human pulmonary EC (Cambrex), grown in EBM-2 complete medium (Cambrex) at 37° C. in a humidified atmosphere of 5% CO2, 95% air, with passages 6-10 used for experimentation will be treated with or without 100 nM HMW-HA and/or 100 nM VEGF in the presence or absence of HABP2 and/or C1INH overexpression vectors (Origene), exogenous purified recombinant HABP2 polyanion binding domain and/or C1INH (Novus Biologicals) and/or siRNA (scramble, HABP2 or C1INH). For HABP2 protease activity determination, media from HABP2 overexpressing EC (see above) was immunoprecipitated with anti-HABP2 antibody-conjugated Sepharose beads (Sigma). The immunobeads were then extensively washed in 50 mM Borate, pH=8.5 and protease activity was measured using the QuantiCleave™ Protease Assay Kit (Pierce). Briefly, the immunobeads were incubated with succinylated casein for one hour followed by development with TNBSA (2,4,6-trinitrobenzene sulfonic acid) and read at 450 nm.

hyaluronan [HMW-HA]
VEGF-induced hyaluronidase expression [1]: inhibited VEGF-induced hyaluronidase expression | LPS-induced CD44 upregulation in mouse lungs ([2]; C57BL/6J mice, LPS challenged followed by HMW-HA): inhibited LPS-induced CD44 upregulation | CD44 expression in mouse lungs ([2]; HMW-HA alone): no effect on CD44 expression | C1INH expression in EC [3]: increased the expression of the endogenous inhibitor of HABP2, C1INH

Reference: patent publication US20100249064A1, “METHODS AND COMPOSITIONS FOR TREATING DISEASES AND CONDITIONS INVOLVING HIGHER MOLECULAR WEIGHT HYALURONAN” (University of Chicago, priority 2007, published 2010)
